# Measurements as given in ChEMBL document CHEMBL3727355, “Chemokine receptor activity regulator” (2014).
# Molecular target: T1, C-C chemokine receptor type 10 (Homo sapiens) (UniProt P46092)
# T1 sequence (whole entry): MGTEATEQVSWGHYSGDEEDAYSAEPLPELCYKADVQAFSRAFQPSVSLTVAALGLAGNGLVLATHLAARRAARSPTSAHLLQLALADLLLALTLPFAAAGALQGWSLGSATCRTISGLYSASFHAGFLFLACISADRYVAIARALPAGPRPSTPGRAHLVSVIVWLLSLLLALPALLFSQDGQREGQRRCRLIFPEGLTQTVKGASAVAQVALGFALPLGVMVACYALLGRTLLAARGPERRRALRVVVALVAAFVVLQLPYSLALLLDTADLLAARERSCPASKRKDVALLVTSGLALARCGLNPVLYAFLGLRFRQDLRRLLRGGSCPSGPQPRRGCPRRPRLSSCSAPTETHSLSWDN
# Test: Antagonist activity against human CCR10 expressed in human KJMGER8 cells assessed as inhibition of human recombinant CTACK-induced increase in intracellular calcium level at 100 nmol/L pre-incubated for 30 mins before human recombinant CTACK stimulation for 5 mins by FLIPR assay
# Assay type: functional, cell-based
row,inhibition,Compound
1,> 100%,Cc1cc(Nc2c(C(=O)N3CCC(c4ccc(F)cc4)CC3)cnc3c(S(=O)(=O)NC(=O)C4CC4)cnn23)c(Cl)cc1F
2,96.7%,CCNC(=O)NS(=O)(=O)c1cnn2c(Nc3cc(Cl)ccc3Cl)c(C(=O)N3CCC(c4ccc(F)cc4)CC3)cnc12
3,98.9%,O=C(NS(=O)(=O)c1cnn2c(Nc3ccccc3Cl)c(C(=O)N3CCC(c4ccccc4)CC3)cnc12)C1CC1
4,> 100%,O=C(c1cnc2c(S(=O)(=O)Nc3ncccn3)cnn2c1Nc1cc(Cl)ccc1Cl)N1CCC(c2ccc(F)cc2)CC1
5,95.1%,CCNC(=O)NS(=O)(=O)c1cnn2c(NCc3ccccc3)c(C(=O)N3CCC(c4ccccc4)CC3)cnc12
6,> 100%,CCC(=O)NS(=O)(=O)c1cnn2c(Nc3cc(C)c(F)cc3Cl)c(C(=O)N3CCC(c4ccc(F)cc4)CC3)cnc12
7,> 100%,CCC(=O)NS(=O)(=O)c1cnn2c(Nc3cc(Cl)ccc3Cl)c(C(=O)N3CCC(c4ccc(F)cc4)CC3)cnc12
8,> 100%,Cc1ccc(Cl)c(Nc2c(C(=O)N3CCC(c4ccc(F)cc4)CC3)cnc3c(S(=O)(=O)NC(=O)NC4CC4(F)F)cnn23)c1 (centres undefined)
9,97%,CCC(=O)NS(=O)(=O)c1cnn2c(Nc3ccc(Cl)cc3Cl)c(C(=O)N3CCC(c4ccc(F)cc4)CC3)cnc12
10,24.3%,CCNC(=O)NS(=O)(=O)c1cnn2c(Nc3cc(C)ccc3Cl)c(C(=O)N3CC4(C3)CN(c3ccc(F)cc3)C4)cnc12
11,> 100%,CC(=O)NS(=O)(=O)c1cnn2c(Nc3cccc(Cl)c3Cl)c(C(=O)N3CCC(c4ccc(F)cc4)CC3)cnc12
12,> 100%,O=C(c1cnc2c(S(=O)(=O)Nc3nncs3)cnn2c1Nc1cc(Cl)ccc1Cl)N1CCC(c2ccc(F)cc2)CC1
13,> 100%,CCNC(=O)NS(=O)(=O)c1cnn2c(Nc3ccc(Cl)cc3C)c(C(=O)N3CCC4(CC3)OCc3ccccc34)cnc12
14,> 100%,CCNS(=O)(=O)c1cnn2c(Nc3ccc(F)cc3C)c(C(=O)N3CCC(c4ccccc4)CC3)cnc12
15,90.7%,CCNC(=O)NS(=O)(=O)c1cnn2c(Nc3ccc(Cl)cc3Cl)c(C(=O)N3CCC(c4ccc(F)cc4)CC3)cnc12
16,80.3%,CCNS(=O)(=O)c1cnn2c(Nc3cc(C)ccc3Cl)c(C(=O)N3CCC4(CC3)OCc3ccccc34)cnc12
17,> 100%,CCNC(=O)NS(=O)(=O)c1cnn2c(Nc3ccccc3Cl)c(C(=O)N3CCC(c4ccc(F)cc4)CC3)cnc12
18,63.7%,Cc1cc(F)ccc1Nc1c(C(=O)N2CCC(c3ccccc3)CC2)cnc2c(S(=O)(=O)NC(=O)Nc3ccccc3)cnn12
19,> 100%,CCC(=O)NS(=O)(=O)c1cnn2c(Nc3cc(C)ccc3Cl)c(C(=O)N3CCC(c4ccc(F)cc4)CC3)cnc12
20,89.4%,O=C(NS(=O)(=O)c1cnn2c(NCc3ccccc3)c(C(=O)N3CCC(c4ccccc4)CC3)cnc12)C1CC1
21,> 100%,CC(=O)NS(=O)(=O)c1cnn2c(Nc3cc(C)ccc3Cl)c(C(=O)N3CCC4(CC3)OCc3ccccc34)cnc12
22,80.6%,O=C(NS(=O)(=O)c1cnn2c(Nc3ccccc3Cl)c(C(=O)N3CCC(c4ccc(F)cc4)CC3)cnc12)C1CC1
23,> 100%,CCC(=O)NS(=O)(=O)c1cnn2c(Nc3cc(F)ccc3F)c(C(=O)N3CCC(c4ccc(F)cc4)CC3)cnc12

row,inhibition,Compound
1,92%,CCNC(=O)NS(=O)(=O)c1cnn2c(Nc3ccc(F)cc3C)c(C(=O)N3CCC4(CC3)OCc3ccccc34)cnc12
2,87.8%,CCNS(=O)(=O)c1cnn2c(Nc3cc(C)ccc3Cl)c(C(=O)N3CCC(c4ccc(F)cc4)CC3)cnc12
3,> 100%,O=C(c1cnc2c(S(=O)(=O)Nc3cccnn3)cnn2c1Nc1cc(Cl)ccc1Cl)N1CCC(c2ccc(F)cc2)CC1
4,81.8%,CCNC(=S)NS(=O)(=O)c1cnn2c(Nc3ccc(F)cc3C)c(C(=O)N3CCC(c4ccccc4)CC3)cnc12
5,> 100%,Cc1ccc(Cl)c(Nc2c(C(=O)N3CCC4(CC3)OCc3ccccc34)cnc3c(S(=O)(=O)NC(=O)C4(C)COC4)cnn23)c1
6,> 100%,CC(=O)NS(=O)(=O)c1cnn2c(Nc3cc(F)ccc3F)c(C(=O)N3CCC(c4ccc(F)cc4)CC3)cnc12
7,92.4%,CCNC(=O)NS(=O)(=O)c1cnn2c(Nc3ccccc3Cl)c(C(=O)N3CCC(c4ccccc4)CC3)cnc12
8,> 100%,O=CNS(=O)(=O)c1cnn2c(Nc3cc(Cl)ccc3Cl)c(C(=O)N3CCC(c4ccc(F)cc4)CC3)cnc12
9,> 100%,CC(=O)NS(=O)(=O)c1cnn2c(Nc3cc(Cl)ccc3F)c(C(=O)N3CCC(c4ccc(F)cc4)CC3)cnc12
10,28.9%,COCCNS(=O)(=O)c1cnn2c(Nc3ccccc3Cl)c(C(=O)N3CCC(c4ccc(F)cc4)CC3)cnc12
11,> 100%,CCN(CC)S(=O)(=O)c1cnn2c(Nc3ccc(F)cc3C)c(C(=O)N3CCC(c4ccccc4)CC3)cnc12
12,98.3%,CCC(=O)NS(=O)(=O)c1cnn2c(Nc3ccc(C)cc3Cl)c(C(=O)N3CCC(c4ccc(F)cc4)CC3)cnc12
13,> 100%,CCC(=O)NS(=O)(=O)c1cnn2c(Nc3cc(Cl)ccc3Cl)c(C(=O)N3CCC4(CC3)OCc3ccccc34)cnc12
14,> 100%,CONS(=O)(=O)c1cnn2c(Nc3cc(Cl)ccc3Cl)c(C(=O)N3CCC(c4ccc(F)cc4)CC3)cnc12
15,> 100%,Cc1cc(F)ccc1Nc1c(C(=O)N2CCC(c3ccc(F)cc3)CC2)cnc2c(S(=O)(=O)NC3CC3)cnn12
16,94.2%,COCC(=O)NS(=O)(=O)c1cnn2c(Nc3ccc(F)cc3C)c(C(=O)N3CCC(c4ccccc4)CC3)cnc12
17,72.6%,CCNC(=O)NS(=O)(=O)c1cnn2c(Nc3ccc(F)cc3C)c(C(=O)N3CCC(c4ccccc4)CC3)cnc12
18,> 100%,CC(=O)NS(=O)(=O)c1cnn2c(Nc3cc(Cl)ccc3Cl)c(C(=O)N3CCC(c4ccc(F)cc4)CC3)cnc12
19,> 100%,Cc1ccc(F)c(Nc2c(C(=O)N3CCC4(CC3)OCc3ccccc34)cnc3c(S(=O)(=O)NC(=O)NC4CC4(F)F)cnn23)c1 (centres undefined)
20,> 100%,CCNC(=O)NS(=O)(=O)c1cnn2c(Nc3ccc(Cl)c(Cl)c3)c(C(=O)N3CCC(c4ccc(F)cc4)CC3)cnc12
21,88.8%,Cc1cc(F)ccc1Nc1c(C(=O)N2CCC(c3ccccc3)CC2)cnc2c(S(=O)(=O)NS(C)(=O)=O)cnn12
22,> 100%,COC(=O)NS(=O)(=O)c1cnn2c(Nc3cc(C)ccc3C)c(C(=O)N3CCC(c4ccccc4)CC3)cnc12
23,> 100%,CCNC(=O)NS(=O)(=O)c1cnn2c(Nc3ccc(C)cc3F)c(C(=O)N3CCC4(CC3)OCc3ccccc34)cnc12

row,inhibition,Compound
1,99.6%,COC(=O)NS(=O)(=O)c1cnn2c(Nc3ccccc3Cl)c(C(=O)N3CCC(c4ccccc4)CC3)cnc12
2,85.9%,Cc1cc(F)ccc1Nc1c(C(=O)N2CCC(c3ccccc3)CC2)cnc2c(S(=O)(=O)NC(=O)N3CCOCC3)cnn12
3,62.3%,Cc1ccc(Cl)c(Nc2c(C(=O)N3CCC4(CC3)OCc3ccccc34)cnc3c(S(=O)(=O)NC(=O)NC4CCOCC4)cnn23)c1
4,> 100%,Cc1cc(F)ccc1Nc1c(C(=O)N2CCC(c3ccccc3)CC2)cnc2c(S(=O)(=O)NC(=O)C(F)(F)F)cnn12
5,> 100%,CCNC(=O)NS(=O)(=O)c1cnn2c(Nc3cc(C)c(F)cc3Cl)c(C(=O)N3CCC(c4ccc(F)cc4)CC3)cnc12
6,> 100%,Cc1ccc(F)c(Nc2c(C(=O)N3CCC(c4ccc(F)cc4)CC3)cnc3c(S(=O)(=O)NC(=O)NC4CC4)cnn23)c1
7,> 100%,CC(=O)NS(=O)(=O)c1cnn2c(Nc3ccc(F)cc3C)c(C(=O)N3CCC(c4ccccc4)CC3)cnc12
8,> 100%,CCNS(=O)(=O)c1cnn2c(Nc3ccc(F)cc3C)c(C(=O)N3CCC(c4ccc(F)cc4)CC3)cnc12
9,68.9%,Cc1cc(F)ccc1Nc1c(C(=O)N2CCC(c3ccccc3)CC2)cnc2c(S(=O)(=O)/N=C/N(C)C)cnn12
10,95.2%,CCNC(=O)NS(=O)(=O)c1cnn2c(Nc3cc(C)ccc3Cl)c(C(=O)N3CCC4(CC3)OCc3ccccc34)cnc12
11,> 100%,Cc1ccc(Cl)c(Nc2c(C(=O)N3CCC(c4ccc(F)cc4)CC3)cnc3c(S(=O)(=O)NC(N)=O)cnn23)c1
12,> 100%,CCC(=O)NS(=O)(=O)c1cnn2c(Nc3cc(C)ccc3F)c(C(=O)N3CCC4(CC3)OCc3ccccc34)cnc12
13,> 100%,O=C(NC1CC1)NS(=O)(=O)c1cnn2c(Nc3ccc(F)cc3Cl)c(C(=O)N3CCC(c4ccc(F)cc4)CC3)cnc12
14,> 100%,CCC(=O)NS(=O)(=O)c1cnn2c(Nc3ccc(C)cc3F)c(C(=O)N3CCC4(CC3)OCc3ccccc34)cnc12
15,58.8%,CNCC(=O)NS(=O)(=O)c1cnn2c(Nc3ccc(F)cc3C)c(C(=O)N3CCC(c4ccccc4)CC3)cnc12
16,> 100%,CCC(=O)NS(=O)(=O)c1cnn2c(Nc3cc(C)ccc3Cl)c(C(=O)N3CCC4(CC3)OCc3ccccc34)cnc12
17,> 100%,CCNC(=O)NS(=O)(=O)c1cnn2c(Nc3cc(C)ccc3Cl)c(C(=O)N3CCC(c4ccc(F)cc4)CC3)cnc12
18,> 100%,Cc1cc(F)ccc1Nc1c(C(=O)N2CCC(c3ccc(F)cc3)CC2)cnc2c(S(=O)(=O)NCC(F)(F)F)cnn12
19,90.7%,COC(=O)NS(=O)(=O)c1cnn2c(Nc3ccc(F)cc3C)c(C(=O)N3CCC(c4ccccc4)CC3)cnc12
20,> 100%,Cc1ccc(F)c(Nc2c(C(=O)N3CCC4(CC3)OCc3ccccc34)cnc3c(S(=O)(=O)NC(=O)C4CC4)cnn23)c1
21,> 100%,CCC(=O)NS(=O)(=O)c1cnn2c(Nc3cc(C)ccc3F)c(C(=O)N3CCC(c4ccc(F)cc4)CC3)cnc12
22,> 100%,Cc1cc(F)ccc1Nc1c(C(=O)N2CCC(c3ccccc3)CC2)cnc2c(S(=O)(=O)NC(=O)CO)cnn12
23,> 100%,CCC(=O)NS(=O)(=O)c1cnn2c(Nc3ccc(F)cc3Cl)c(C(=O)N3CCC4(CC3)OCc3ccccc34)cnc12
